The values below come from patent US8658353B2, “Liver cell toxicity assay” (Corning Incorporated, priority 2008, dated 2014).

The test system of series [1] is primary liver cells. Description: Label-free biosensor DMR assay, direct exposure of primary liver cells in biosensor sandwich culture. It counts as cell-based, Human. To be noted: for DMR signal upon exposure to compound alone: all doses examined. How it is done:
Collagen coating of the biosensor microplates was achieved by dispensing 10 μl collagen I (10 μg/ml) into each well, and followed by slow drying over night under controlled vacuum condition. This coating process takes advantage of slow self-assembly of collagen I, and results in an un-even coating consisting of a series of clusters of collagen I, thus providing microscale or nanoscale topology of ECM materials to liver cells to form Epic® 384well biosensor microplate collagen coated.
The RWG biosensor exploits its evanescent wave to measure ligand-induced DMR signals in cells. The evanescent wave extends into the cells and exponentially decays over distance, leading to a characteristic sensing volume of ˜150 nm, implying that any optical response mediated through the receptor activation only represents an average over the portion of the cell that the evanescent wave is sampling. The aggregation of many cellular events downstream the receptor activation determines the kinetics and amplitudes of a ligand-induced DMR.
(§1) The cell responses were recorded continuously.

In series [2] the test system is primary liver cells. Description: Label-free biosensor DMR assay, 1 mM H2O2 as amplifying marker after compound pretreatment of primary liver cells. To be noted: then 1 mM H2O2.
The test system of series [3] is human lung cancer cell line A549. Description: Label-free biosensor DMR assay of A549 cells exposed to 2 mM H2O2 with or without thrombin pretreatment. The class given is cell-based. As for the experimental part: The kinetic responses were normalized at the time point 2 min before the addition of H2O2.
as §1
The large amplitude of the second N-DMR signal indicates the significant loss of local biomass density within the detection zone of the biosensor, indicative of cell apoptosis which leads to the release of cellular matters from the bottom portion of cells cultured on the biosensor surface. […] The onset time for the second N-DMR event is delayed by at least 15 min.

Take `C[S+]([O-])c1ccc(-c2nc(-c3ccncc3)c(-c3ccc(F)cc3)[nH]2)cc1` (centres unmarked) [SB203580]: the “DMR signal upon exposure to compound alone” value in the series with primary liver cells [1] (625 nanomolar up to 10000 nanomolar) is given as “did not result in any significant DMR signal”. Further, in the series with primary liver cells [2] (high doses of SB203580, pretreatment ~1-4 hrs), the “H2O2-induced DMR signal after pretreatment” value is “responded to 1 mM H2O2 exposure with a N-DMR”.
For `CO[C@H]1/C=C/O[C@@]2(C)Oc3c(C)c(O)c4c(O)c(c(/C=N/N5CCN(C)CC5)c(O)c4c3C2=O)NC(=O)/C(C)=C\C=C\[C@H](C)[C@H](O)[C@@H](C)[C@@H](O)[C@@H](C)[C@H](OC(C)=O)[C@@H]1C` [rifampin, Rifampin], in the series on primary liver cells [1] (rifampin 625 nM up to 40000 nM), the “DMR signal upon exposure to compound alone” value was “did not result in any significant loss in local biomass density or cause any significant DMR signal”. Further, the “H2O2-induced DMR signal after pretreatment” value in the series with primary liver cells [2] (rifampin pretreatment ~1-4 hrs) is given as “rifampin dose dependent N-DMR”.
As for thrombin, the “delay of onset time for the second N-DMR event” value in series [3] (thrombin pretreatment 1 to 16 unit/ml, then 2 mM H2O2) is reported as “at least 15 min”. Besides, in series [3] (thrombin pretreatment 1 hr, then 2 mM H2O2, said to correspond to EC50 for endogenous PAR1 activation), the “potency to alter the H2O2 response, based on amplitudes of the rapid P-DMR event” value is recorded as approximately 4 unit/ml. The “effect on H2O2-induced A549 apoptosis” value in series [3] (thrombin pretreatment, then 2 mM H2O2) was “protective of H2O2-induced A549 apoptosis”.
Turning to `OO` [H2O2, hydrogen peroxide], the “DMR response (change in local biomass)” value in the series with primary liver cells [1] (1 mM H2O2) is “did not trigger any significant change in local biomass”. Further, the DMR response entry in the series with primary liver cells [1] (5 mM H2O2) was “significant negative DMR (N-DMR) signal”. Also, the “onset time for the N-DMR signal” value in the series with primary liver cells [1] (after treatment with 5 mM H2O2) is reported as “around 30 min”. Besides, in series [3] (2 mM H2O2, no thrombin pretreatment), the “DMR signal of A549 cells” value is “complicated DMR signal, consisting of four phases”.
